A short description of data set [1]: Log KOW (octanol/water partition coefficient) by HPLC, OECD Method 117. Format: physicochemical. Here is the method: (§1) In these Examples, Log KOWs, (octanol/water partition coefficients), were determined by HPLC using the method described in OECD Method 117. Atmospheric lifetimes were experimentally determined using a relative rate method to determine the hydroxyl radical rate constant.

Data set [2] can be described thus: Atmospheric lifetime by relative rate method (hydroxyl radical rate constant). Format: physicochemical. Here is the method:
as §1

For another data set, the system named is rats. As to the kind of experiment: toxicity screening study in rats, 4 Hr Inhalation LC50.

Read-outs that look alike come from different tables or passages of the source.

For “4-(E&Z)-(1,2-difluorovinyl)-2,2,3,3,5,5,6,6-octafluoromorpholine [Example 4]”, in data set [1], the “Log KOW (octanol/water partition coefficient measured by HPLC)” value is 4.31. Further, in data set [2], the atmospheric lifetime turned out to be 0.078 years. In the data set on rats, the “4 Hr Inhalation LC50” value is given as > 10,000 ppm.

On to `FC(=CC(F)(F)F)N1C(F)(F)C(F)(F)OC(F)(F)C1(F)F` [Example 2], for which, in data set [1], the “Log KOW (octanol/water partition coefficient measured by HPLC)” value was 4.80. The same compound had an atmospheric lifetime in data set [2] of 0.89 years. For the same compound, the “4 Hr Inhalation LC50” value in the data set on rats is > 10,390 ppm.

Turning to `F/C(=C\C(F)(F)F)N(C(F)(F)F)C(F)(F)F` [Example 3, (E&Z)-1,3,3,3-tetrafluoro-N,N-bis(trifluoromethyl)prop-1-en-1-amine], in data set [1], the chromatographic logP turned out to be 4.12. The compound also displayed an atmospheric lifetime in data set [2] of 1.3 years.

For `C=C(F)N1C(F)(F)C(F)(F)OC(F)(F)C1(F)F` [Example 6, 2,2,3,3,5,5,6,6-octafluoro-4-(1-fluorovinyl)morpholine], in data set [1] (octanol/water, HPLC, OECD Method 117, average value for the E/Z product mixtures of Examples 1-3, read-out: Log KOW (octanol/water partition coefficient measured by HPLC)), the chromatographic logP is 4.33. The compound also came in with an atmospheric lifetime in data set [2] of 0.095 years. The “4 Hr Inhalation LC50” value in the data set on rats is reported as > 10,000 ppm.

For the compound `FC=C(F)N(C(F)(F)C(F)(F)F)C(F)(F)C(F)(F)C(F)(F)F` [Example 8, N-(E&Z)-(1,2-difluorovinyl)-1,1,2,2,3,3,3-heptafluoro-N-(perfluoroethyl)propan-1-amine], the “Log KOW (octanol/water partition coefficient measured by HPLC)” value in data set [1] turned out to be 4.97.

`FC(=CC(F)(F)F)N(C(F)(F)F)C(F)(F)C(F)(F)F` [Example 1, (E&Z)-1,3,3,3-tetrafluoro-N-(1,1,2,2,2-pentafluoroethyl)-N-(trifluoromethyl)prop-1-en-1-amine]: the “Log KOW (octanol/water partition coefficient measured by HPLC)” value in data set [1] (HPLC, OECD Method 117, average value for the E/Z product mixtures of Examples 1-3) is 4.57.

Values taken from US10738001B2, “Hydrofluoroolefins and methods of using same” (priority 2015, dated 2020).
